Assay results reported in ChEMBL document CHEMBL1201862, “PubChem BioAssay data set” (2004).
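All cell lines were grown in 96-well plates and treated with compound for 48 hours. Here, GI50 denotes the concentration required for 50% inhibition of growth.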 Calls of active or inactive are those of the source. Cut-off read from the data, not from the text of the source: active = GI50 up to about 1.1 µM and inactive = higher.

Legend:
Assay in all cases: NCI tumour cell line growth inhibition, 48 h
HCT-15 = test system: HCT-15
ACHN = test system: ACHN
SF-295 = test system: SF-295
MDA-MB-231 = test system: MDA-MB-231
SK-MEL-28 = test system: SK-MEL-28
SF-539 = test system: SF-539
HL-60 = test system: HL-60
SN12C = test system: SN12C
Hs-578T = test system: Hs-578T
SR = test system: SR
SK-MEL-5 = test system: SK-MEL-5
OVCAR-5 = test system: OVCAR-5
CCRF-CEM = test system: CCRF-CEM
UO-31 = test system: UO-31
PC-3 = test system: PC-3
COLO 205 = test system: COLO 205
OVCAR-3 = test system: OVCAR-3
SW-620 = test system: SW-620
SNB-19 = test system: SNB-19
OVCAR-4 = test system: OVCAR-4
HOP-92 = test system: HOP-92
A549 = test system: A549
IGROV-1 = test system: IGROV-1
MDA-MB-435 = test system: MDA-MB-435
SK-OV-3 = test system: SK-OV-3
SK-MEL-2 = test system: SK-MEL-2
KM12 = test system: KM12
OVCAR-8 = test system: OVCAR-8
SNB-75 = test system: SNB-75
RXF 393 = test system: RXF 393
K562 = test system: K562
NCI-H226 = test system: NCI-H226
SF-268 = test system: SF-268
NCI/ADR-RES = test system: NCI/ADR-RES
NCI-H522 = test system: NCI-H522
RPMI-8226 = test system: RPMI-8226
T47D = test system: T47D
MCF7 = test system: MCF7
786-0 = test system: 786-0
U-251 = test system: U-251
TK-10 = test system: TK-10
HOP-62 = test system: HOP-62
MOLT-4 = test system: MOLT-4
HT-29 = test system: HT-29
EKVX = test system: EKVX
Malme-3M = test system: Malme-3M
LOX IMVI = test system: LOX IMVI
BT-549 = test system: BT-549
M14 = test system: M14
CAKI-1 = test system: CAKI-1
DU-145 = test system: DU-145
NCI-H23 = test system: NCI-H23
UACC-257 = test system: UACC-257
HCT-116 = test system: HCT-116
MDA-N = test system: MDA-N

For `N#CC(NNC(=O)c1c(Cl)c(Cl)c(Cl)c(Cl)c1-c1nc2cc(C(=O)c3ccccc3)ccc2[nH]1)c1ccccc1` (stereo not given), which GI50 (HCT-15) is on record?
The GI50 was 4.74 µM.

What about the GI50 (ACHN) of the same molecule?
The GI50 was 10.6 µM (inactive).

What about the GI50 (SF-295) of the same molecule?
The GI50 was 3.68 µM (inactive).

What about the GI50 (MDA-MB-231) of the same molecule?
The GI50 was 9.2 µM (inactive).

What about the GI50 (SK-MEL-28) of the same molecule?
The GI50 was 17.8 µM (inactive).

And the GI50 (SF-539)?
Its GI50 is 3.18 µM (inactive).

And the GI50 (HL-60)?
Its GI50 is 4.69 µM (inactive).

And the GI50 (SN12C)?
Its GI50 is 6.61 µM (inactive).

And the GI50 (Hs-578T)?
Its GI50 is 6.78 µM (inactive).

What about the GI50 (SR) of the same molecule?
The GI50 was 2.84 µM (inactive).

And the GI50 (SK-MEL-5)?
Its GI50 is 3.4 µM (inactive).

What about the GI50 (OVCAR-5) of the same molecule?
The GI50 was 26.5 µM (inactive).

And the GI50 (CCRF-CEM)?
The GI50 was 4.02 µM (inactive).

What about the GI50 (UO-31) of the same molecule?
The GI50 was 14 µM (inactive).

And the GI50 (PC-3)?
Its GI50 is 7.14 µM (inactive).

And the GI50 (COLO 205)?
The GI50 was 10 µM (inactive).

What about the GI50 (OVCAR-3) of the same molecule?
Its GI50 is 4.57 µM (inactive).

And the GI50 (SW-620)?
Its GI50 is 8.87 µM (inactive).

And the GI50 (SNB-19)?
The GI50 was 12.4 µM (inactive).

What about the GI50 (OVCAR-4) of the same molecule?
Its GI50 is 7.13 µM (inactive).

And the GI50 (HOP-92)?
The GI50 was 15 µM (inactive).

And the GI50 (A549)?
The GI50 was 6.76 µM (inactive).

And the GI50 (IGROV-1)?
The GI50 was 12.5 µM (inactive).

What about the GI50 (MDA-MB-435) of the same molecule?
The GI50 was 2.82 µM (inactive).

What about the GI50 (SK-OV-3) of the same molecule?
The GI50 was 13 µM (inactive).

What about the GI50 (SK-MEL-2) of the same molecule?
Its GI50 is 8.91 µM (inactive).

And the GI50 (KM12)?
Its GI50 is 7.45 µM (inactive).

And the GI50 (OVCAR-8)?
The GI50 was 23.7 µM (inactive).

What about the GI50 (SNB-75) of the same molecule?
The GI50 was 3.95 µM (inactive).

And the GI50 (RXF 393)?
The GI50 was 3.18 µM (inactive).

What about the GI50 (K562) of the same molecule?
The GI50 was 3.24 µM (inactive).

And the GI50 (NCI-H226)?
The GI50 was 9.2 µM (inactive).

And the GI50 (SF-268)?
Its GI50 is 7.83 µM (inactive).

And the GI50 (NCI/ADR-RES)?
The GI50 was 3.43 µM (inactive).

What about the GI50 (NCI-H522) of the same molecule?
The GI50 was 3.39 µM (inactive).

And the GI50 (RPMI-8226)?
Its GI50 is 6.85 µM (inactive).

And the GI50 (T47D)?
The GI50 was 4.79 µM (inactive).

What about the GI50 (MCF7) of the same molecule?
Its GI50 is 2.9 µM (inactive).

And the GI50 (786-0)?
The GI50 was 12.2 µM (inactive).

What about the GI50 (U-251) of the same molecule?
Its GI50 is 15.8 µM (inactive).

What about the GI50 (TK-10) of the same molecule?
The GI50 was 21.8 µM (inactive).

And the GI50 (HOP-62)?
The GI50 was 7.82 µM (inactive).

What about the GI50 (MOLT-4) of the same molecule?
Its GI50 is 3.22 µM (inactive).

What about the GI50 (HT-29) of the same molecule?
Its GI50 is 8.53 µM (inactive).

What about the GI50 (EKVX) of the same molecule?
Its GI50 is 17.9 µM (inactive).

And the GI50 (Malme-3M)?
Its GI50 is 8.57 µM (inactive).

What about the GI50 (LOX IMVI) of the same molecule?
Its GI50 is 9.35 µM (inactive).

And the GI50 (BT-549)?
The GI50 was 9.2 µM (inactive).

What about the GI50 (M14) of the same molecule?
Its GI50 is 7.46 µM (inactive).

What about the GI50 (CAKI-1) of the same molecule?
The GI50 was 21.4 µM (inactive).

And the GI50 (DU-145)?
Its GI50 is 24.3 µM (inactive).

And the GI50 (NCI-H23)?
The GI50 was 7.45 µM (inactive).

What about the GI50 (UACC-257) of the same molecule?
Its GI50 is 9.98 µM (inactive).

And the GI50 (HCT-116)?
The GI50 was 10.6 µM (inactive).

And the GI50 (MDA-N)?
Its GI50 is 2.56 µM (inactive).
